The target in assay [1] is T1, single-copy VanSB periplasmic sensor domain (Enterococcus faecalis, UniProt Q47745). Kind of assay: biochemical.
The target in assay [2] is full-length VanSB (in nanodiscs) (Enterococcus faecalis, UniProt Q47745). Kind of assay: biochemical.
For assay [3], the target named is T2, tandem VanSB periplasmic sensor domain (Enterococcus faecalis, UniProt Q47745). Kind of assay: biochemical.
Assay [4] addresses T2, tandem VanSB periplasmic sensor domain. Kind of assay: fluorescence anisotropy. The note with it: labelled compound, 100 nM; 20 mM Tris pH 7.5, 100 mM NaCl, 0.01% Triton X-100, room temperature. More on the design: two copies of periplasmic domain Q31-G132 in one polypeptide joined by GSGGS linker; expressed in E. coli as TEV-cleavable 6xHis-MBP fusion, tag removed. It is filed as binding. (Polarisation of emitted light reports the rotation of a fluorescent probe.)

The target in assay [5] is T1, single-copy VanSB periplasmic sensor domain. The assay is described as follows: fluorescence anisotropy. More on the design: periplasmic sensor domain Q31-G132, single copy; expressed in E. coli as TEV-cleavable 6xHis-MBP fusion, tag removed. The assay is classed as binding. The note with it: labelled compound, 100 nM; 20 mM Tris pH 7.5, 100 mM NaCl, 0.01% Triton X-100, room temperature.

In assay [6] the target is T3, cVanSB (cytosolic domain of VanSB) (Enterococcus faecalis, UniProt Q47745).
T3 construct: cytosolic domain M159-L447, C-terminal His6 (pETCH), expressed in E. coli
The assay is described as follows: autophosphorylation with ATPγS, anti-thiophosphohistidine (PNBM) Western blot. The note with it: 1 mM ATPγS, 10 mM MgCl2, pH 7.4; not affected by vancomycin. The assay is classed as biochemical.

T2 sequence (Q47745 31-132): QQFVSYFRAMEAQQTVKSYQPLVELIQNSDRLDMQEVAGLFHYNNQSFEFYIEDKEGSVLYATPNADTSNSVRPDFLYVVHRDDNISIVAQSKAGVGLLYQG
T1 sequence (Q47745 31-132): as above
full-length VanSB (in nanodiscs), sequence (Q47745 whole entry, the tested form may be a part): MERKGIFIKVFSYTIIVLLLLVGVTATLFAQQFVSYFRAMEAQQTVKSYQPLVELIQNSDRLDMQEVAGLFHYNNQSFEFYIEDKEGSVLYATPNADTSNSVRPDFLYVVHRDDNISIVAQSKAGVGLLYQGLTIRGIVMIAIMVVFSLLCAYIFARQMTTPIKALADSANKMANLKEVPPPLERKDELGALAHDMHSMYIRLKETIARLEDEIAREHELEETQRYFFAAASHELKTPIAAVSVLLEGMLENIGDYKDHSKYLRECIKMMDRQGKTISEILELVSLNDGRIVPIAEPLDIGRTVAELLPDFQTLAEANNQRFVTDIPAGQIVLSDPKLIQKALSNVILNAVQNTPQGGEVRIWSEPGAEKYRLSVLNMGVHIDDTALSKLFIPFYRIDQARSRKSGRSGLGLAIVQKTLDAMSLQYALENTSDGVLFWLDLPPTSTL
T3 sequence (Q47745 159-447): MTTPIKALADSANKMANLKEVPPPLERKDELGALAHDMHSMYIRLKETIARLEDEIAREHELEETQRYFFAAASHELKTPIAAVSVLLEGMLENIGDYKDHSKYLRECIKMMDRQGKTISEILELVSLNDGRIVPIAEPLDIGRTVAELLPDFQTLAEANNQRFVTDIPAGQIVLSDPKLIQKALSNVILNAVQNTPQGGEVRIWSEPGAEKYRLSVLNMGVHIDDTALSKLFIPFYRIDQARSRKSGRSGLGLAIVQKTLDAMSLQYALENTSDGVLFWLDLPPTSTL

For orientation: Kd means the free concentration of one partner at which half of the binding sites on the other are occupied at equilibrium, for simple one-to-one binding. The low end stands for higher affinity, the high end for lower affinity. In general, EC50 refers to the concentration at which the effect is half-maximal. Read a low EC50 as an effect from little substance. In the case of `CN[C@H](CC(C)C)C(=O)N[C@H]1C(=O)N[C@@H](CC(N)=O)C(=O)N[C@H]2C(=O)N[C@H]3C(=O)N[C@H](C(=O)N[C@H](C(=O)O)c4cc(O)cc(O)c4-c4cc3ccc4O)[C@H](O)c3ccc(c(Cl)c3)Oc3cc2cc(c3O[C@@H]2O[C@H](CO)[C@@H](O)[C@H](O)[C@H]2O[C@H]2C[C@](C)(N)[C@H](O)[C@H](C)O2)Oc2ccc(cc2Cl)[C@H]1O` [vancomycin], the Kd in assay [1] is 20.7 µM; in assay [3], 11 µM. The compound further registered an EC50 in assay [2] of 43 ± 12.5 µM.

On to `CN[C@H](CC(C)C)C(=O)N[C@H]1C(=O)N[C@@H](CC(N)=O)C(=O)N[C@H]2C(=O)N[C@H]3C(=O)N[C@H](C(=O)N[C@H](C(=O)O)c4cc(O)cc(O)c4-c4cc3ccc4O)[C@H](O)c3ccc(c(Cl)c3)Oc3cc2cc(c3O[C@@H]2O[C@H](CO)[C@@H](O)[C@H](O)[C@H]2O[C@H]2C[C@](C)(NC(=O)CCc3ccc4n3[B-](F)(F)[N+]3=C(C)C=C(C)C3=C4)[C@H](O)[C@H](C)O2)Oc2ccc(cc2Cl)[C@H]1O` [BODIPY-FL-vancomycin], for which the results for the Kd in assay [4] and in assay [5] were 10.7 µM and 20.3 µM, respectively. For the compound `Nc1ncnc2c1ncn2[C@@H]1O[C@H](COP(=O)(O)OP(=O)(O)OP(O)(O)=S)[C@@H](O)[C@H]1O` [ATPγS], the “autophosphorylation with ATPγS, anti-thiophosphohistidine (PNBM) Western blot” value in assay [6] was “autophosphorylation time course for full-length VanSB (reconstituted in nanodiscs) and its cytosolic domain”. For the compound AF488-vancomycin, the Kd in assay [4] was 11 µM.

These data come from paper PMC12212144, “The VanS sensor histidine kinase from type-B vancomycin-resistant enterococci recognizes vancomycin directly” (The Journal of Biological Chemistry, 2025).
